According to patent US10494378B2, “Fused ring pyrimidine compound, intermediate, and preparation method, composition and use thereof” (GUANGZHOU MAXINOVEL PHARMACEUTICALS CO., LTD., priority 2015, dated 2019):

Legend:
Format in all cases: biochemical
FLT3 kinase (FLT3-WT) = biological target: T1, FLT3 kinase (FLT3-WT) (Homo sapiens, UniProt P36888); test: IC50 evaluation assay of FLT3 kinase inhibition (Caliper); conditions: 28° C.; average of two tests; read-out: IC50 (nM) inhibiting FLT3-WT kinase
T1 construct: purchased Carna 08-154
T1 sequence (P36888 27-993): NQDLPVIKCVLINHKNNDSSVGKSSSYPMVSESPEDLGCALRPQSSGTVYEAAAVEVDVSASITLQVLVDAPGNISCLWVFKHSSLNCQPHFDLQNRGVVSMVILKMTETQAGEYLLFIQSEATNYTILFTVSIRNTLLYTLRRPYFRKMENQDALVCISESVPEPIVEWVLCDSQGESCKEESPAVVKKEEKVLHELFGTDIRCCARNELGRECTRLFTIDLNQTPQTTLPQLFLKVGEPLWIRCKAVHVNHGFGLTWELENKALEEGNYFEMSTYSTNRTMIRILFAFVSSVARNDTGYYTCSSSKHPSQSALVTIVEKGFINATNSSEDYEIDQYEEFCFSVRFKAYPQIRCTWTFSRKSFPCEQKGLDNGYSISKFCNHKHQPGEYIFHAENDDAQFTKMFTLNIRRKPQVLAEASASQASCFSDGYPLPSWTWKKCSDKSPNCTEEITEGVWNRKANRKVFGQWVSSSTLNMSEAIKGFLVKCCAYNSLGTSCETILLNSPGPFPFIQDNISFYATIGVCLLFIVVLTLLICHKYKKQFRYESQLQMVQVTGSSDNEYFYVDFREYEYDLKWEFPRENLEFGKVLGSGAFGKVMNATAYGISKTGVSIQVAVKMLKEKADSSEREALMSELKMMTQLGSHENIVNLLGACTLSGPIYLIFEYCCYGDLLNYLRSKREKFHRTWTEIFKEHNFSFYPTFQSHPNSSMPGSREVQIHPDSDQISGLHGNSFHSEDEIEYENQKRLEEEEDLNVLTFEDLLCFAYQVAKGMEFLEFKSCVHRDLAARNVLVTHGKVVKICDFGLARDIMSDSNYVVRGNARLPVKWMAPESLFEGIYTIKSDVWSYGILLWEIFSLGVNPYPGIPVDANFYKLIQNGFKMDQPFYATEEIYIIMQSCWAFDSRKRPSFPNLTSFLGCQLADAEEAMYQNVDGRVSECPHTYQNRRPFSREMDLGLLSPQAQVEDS
Method: (§1) 1. The compound was dissolved in 100% DMSO, diluted into solutions with appropriate concentration gradients with water according to experimental requirement, and added to a 96-well plate.
(§2) 2. FLT3 kinase (Carna, Cat. No. 08-154, Lot. No. 07CBS-2350), FLT3-ITD kinase (Invitrogen, Cat. No. PV6191, Lot. No. 1753453) and FLT3-D835Y kinase (Invitrogen, Cat. No. PR7450A, Lot. No. 1629729C) were diluted to the optimum concentration with the following buffer solution: 50 mM HEPES, pH 7.5, 0.0015% Brij-35, 10 mM MgCl2, 2 mM DTT. Transfer to the 96-well plate and incubate with the compound at 28° C. for a period of time.
(§3) 3. The buffer solution (100 mM HEPES, pH 7.5, 0.0015% Brij-35, 0.2% Coating Reagent and […]) was added to terminate the reaction.
(§4) 4. The conversion rate was read with Caliper Reader. The inhibition rate was calculated as the average of two tests.

FLT3-ITD kinase = biological target: T2, FLT3-ITD kinase (Homo sapiens, UniProt P36888); test: IC50 evaluation assay of FLT3-ITD kinase inhibition (Caliper); conditions: 28° C.; average of two tests; read-out: IC50 (nM) inhibiting FLT3-ITD kinase
T2 sequence (P36888 1-993): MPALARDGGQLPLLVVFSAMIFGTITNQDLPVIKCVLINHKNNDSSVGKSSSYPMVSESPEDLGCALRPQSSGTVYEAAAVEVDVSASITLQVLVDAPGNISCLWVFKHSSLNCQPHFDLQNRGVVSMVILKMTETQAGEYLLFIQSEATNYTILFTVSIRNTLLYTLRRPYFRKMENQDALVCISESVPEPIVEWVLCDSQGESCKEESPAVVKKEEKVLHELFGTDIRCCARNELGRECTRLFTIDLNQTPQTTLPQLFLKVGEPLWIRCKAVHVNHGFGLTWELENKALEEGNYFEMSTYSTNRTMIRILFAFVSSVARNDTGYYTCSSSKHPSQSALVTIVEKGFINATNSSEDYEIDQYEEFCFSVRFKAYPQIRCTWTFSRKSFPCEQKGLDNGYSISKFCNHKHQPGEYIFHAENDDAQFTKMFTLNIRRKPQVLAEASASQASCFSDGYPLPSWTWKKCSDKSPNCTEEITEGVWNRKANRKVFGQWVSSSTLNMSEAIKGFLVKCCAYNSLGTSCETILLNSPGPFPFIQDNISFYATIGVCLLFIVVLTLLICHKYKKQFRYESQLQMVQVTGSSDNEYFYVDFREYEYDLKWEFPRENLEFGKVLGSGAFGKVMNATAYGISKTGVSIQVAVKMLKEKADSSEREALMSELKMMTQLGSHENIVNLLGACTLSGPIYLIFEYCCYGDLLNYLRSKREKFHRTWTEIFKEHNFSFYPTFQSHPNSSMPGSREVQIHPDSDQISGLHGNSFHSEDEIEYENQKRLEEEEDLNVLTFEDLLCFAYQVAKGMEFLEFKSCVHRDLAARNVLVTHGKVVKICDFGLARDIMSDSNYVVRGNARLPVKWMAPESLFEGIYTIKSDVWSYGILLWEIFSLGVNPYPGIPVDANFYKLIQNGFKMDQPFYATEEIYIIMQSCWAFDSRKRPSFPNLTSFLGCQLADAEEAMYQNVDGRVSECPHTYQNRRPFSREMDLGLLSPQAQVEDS
Method: as §1, §2, §3, §4

FGFR2 kinase = biological target: T3, FGFR2 kinase (Homo sapiens, UniProt P21802); test: IC50 evaluation assay of FGFR2 kinase inhibition (Caliper); conditions: 28° C.; average of two tests; read-out: IC50 (nM) inhibiting FGFR 2 kinase
T3 construct: purchased Carna 08-134
T3 sequence (P21802 22-821): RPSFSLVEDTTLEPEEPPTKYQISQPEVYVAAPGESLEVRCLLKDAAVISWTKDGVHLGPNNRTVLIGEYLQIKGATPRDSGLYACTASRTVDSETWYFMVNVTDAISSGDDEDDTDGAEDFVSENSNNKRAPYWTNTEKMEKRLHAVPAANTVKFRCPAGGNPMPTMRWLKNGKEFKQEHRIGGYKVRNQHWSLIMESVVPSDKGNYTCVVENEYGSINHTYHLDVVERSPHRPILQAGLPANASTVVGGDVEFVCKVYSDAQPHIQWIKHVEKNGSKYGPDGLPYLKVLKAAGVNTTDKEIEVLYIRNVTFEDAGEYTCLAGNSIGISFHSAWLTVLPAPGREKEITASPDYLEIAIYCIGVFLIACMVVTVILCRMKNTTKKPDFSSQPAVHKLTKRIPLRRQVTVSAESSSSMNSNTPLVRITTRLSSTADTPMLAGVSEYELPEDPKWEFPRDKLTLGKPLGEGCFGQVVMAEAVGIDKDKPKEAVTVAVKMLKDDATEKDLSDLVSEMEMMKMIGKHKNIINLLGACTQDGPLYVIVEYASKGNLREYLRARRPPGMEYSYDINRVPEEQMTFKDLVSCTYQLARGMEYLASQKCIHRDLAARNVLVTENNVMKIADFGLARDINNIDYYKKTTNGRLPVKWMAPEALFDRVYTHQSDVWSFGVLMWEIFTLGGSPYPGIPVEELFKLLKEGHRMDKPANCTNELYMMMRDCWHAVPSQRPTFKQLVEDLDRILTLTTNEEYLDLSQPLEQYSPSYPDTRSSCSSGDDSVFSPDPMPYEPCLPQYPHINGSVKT
Method: as §1
2. FGFR1 kinase (Carna, Cat. No. 08-133, Lot. No. 09CBS-0989) and FGFR2 kinase (Carna, Cat. No. 08-134, Lot. No. 07CBS-2468), JAK3 kinase (Carna, Cat. No. 08-135, Lot. No. 06CBS-3177) were diluted to the optimum concentration with the following buffer solution: 50 mM HEPES, pH 7.5, 0.0015% Brij-35, 2 mM DTT. Transfer to the 96-well plate and incubate with the compound at 28° C. for a period of time.
as §3, §4

Row | IC50 (FLT3 kinase (FLT3-WT)) [nM] | IC50 (FLT3-ITD kinase) [nM] | IC50 (FGFR2 kinase) [nM] | Structure (SMILES)
1 | 0.28 | 0.34 | 10 | COc1cc(F)ccc1-c1c(C)sc2cnc(Nc3cnn(C4CCNCC4)c3)nc12 [Compound 31, N-[7-(4-fluoro-2-methoxyphenyl)-6-methylthieno[3,2-d]pyrimidinyl-2-yl]-1-(piperidinyl-4-yl)-1H-pyrazol-4-amine]
2 | < 5 | 0.33 | 8.9 | COc1cc(F)ccc1-c1c(C)sc2cnc(Nc3cnn(C4CCN(CCO)CC4)c3)nc12 [Compound 34, 2-[4-(4-{[7-(4-fluoro-2-methoxyphenyl)-6-methylthieno[3,2-d]pyrimidinyl-2-yl]amino}-1H-pyrazol-1-yl)-piperidinyl-1-yl]-1-ethanol]
